For 29 compounds, EC50 results are on record in patent US12037344B2, “NLRP3 modulators” (INNATE TUMOR IMMUNITY, INC., priority 2018, dated 2024).

Counter-ions that a name gives are not always drawn.

One test addresses T1, TLR7 (Homo sapiens, UniProt Q9NYK1).
T1 construct: human HEK-Blue cells co-expressing a TLR7 or TLR8 gene
T1 sequence (Q9NYK1 27-1049): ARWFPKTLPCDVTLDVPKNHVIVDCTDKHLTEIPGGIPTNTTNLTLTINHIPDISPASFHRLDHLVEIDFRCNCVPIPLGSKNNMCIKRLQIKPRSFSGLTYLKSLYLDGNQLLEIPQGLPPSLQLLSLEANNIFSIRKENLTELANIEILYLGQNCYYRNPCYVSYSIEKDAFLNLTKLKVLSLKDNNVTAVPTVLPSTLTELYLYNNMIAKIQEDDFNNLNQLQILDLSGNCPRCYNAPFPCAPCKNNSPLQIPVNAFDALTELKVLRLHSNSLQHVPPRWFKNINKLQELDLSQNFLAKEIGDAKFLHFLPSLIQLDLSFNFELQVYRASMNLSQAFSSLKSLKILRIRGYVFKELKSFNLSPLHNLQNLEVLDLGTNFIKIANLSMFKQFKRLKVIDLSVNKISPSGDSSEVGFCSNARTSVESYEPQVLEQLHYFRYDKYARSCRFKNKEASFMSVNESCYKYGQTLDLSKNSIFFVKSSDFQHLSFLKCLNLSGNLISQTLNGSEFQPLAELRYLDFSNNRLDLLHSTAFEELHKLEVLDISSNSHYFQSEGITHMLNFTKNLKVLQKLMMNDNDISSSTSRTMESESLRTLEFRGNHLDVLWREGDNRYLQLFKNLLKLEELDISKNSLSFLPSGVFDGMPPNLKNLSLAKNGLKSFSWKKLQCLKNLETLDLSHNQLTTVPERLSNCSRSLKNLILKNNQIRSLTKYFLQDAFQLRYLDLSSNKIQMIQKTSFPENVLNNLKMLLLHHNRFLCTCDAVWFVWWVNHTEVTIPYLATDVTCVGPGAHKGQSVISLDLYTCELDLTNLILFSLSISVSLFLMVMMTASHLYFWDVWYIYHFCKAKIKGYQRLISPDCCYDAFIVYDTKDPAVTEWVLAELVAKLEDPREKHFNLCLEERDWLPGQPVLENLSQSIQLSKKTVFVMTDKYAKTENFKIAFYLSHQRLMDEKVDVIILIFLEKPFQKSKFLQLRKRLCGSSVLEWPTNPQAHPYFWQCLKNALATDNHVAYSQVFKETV
In words: In vitro human TLR7 binding reporter assay (HEK-Blue, NF-kB/AP1-inducible SEAP). The following applies: activity range, read-out: TLR7 Agonist EC50. The class given is cell-based. An outline of the steps: (§1)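 Cells are seeded and grown for 24 h. Compounds or DMSO are then added and incubated 18 h at 37 °C. Quanti-Blue is added, and SEAP is read after thirty minutes. EC50 values are normalized, with RLU from 50 μM reference standard setting 100% Ymax.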
For orientation: In a reporter assay the amount or activity of a reporter protein is the signal.

The subject of the next test is THP-1 cells. Nature of the test: Measurement of IL-1β production, hTRF protocol (second alternative procedure), THP-1 cells. The class given is cell-based, human. To be noted: Homo sapiens, THP-1, IL-1β production, human cells; read-out: NLRP3 hILIB EC50. In short, it runs like this: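 Compounds, dilution series starting at a final 10 μM, were incubated 2 hours at 37° C with PMA-differentiated THP-1 cells (50 ng/ml overnight; 50,000 cells/well, 2% FBS RPMI). Released IL-1β quantified in supernatant by hTRF kit with 1:40 antibody dilution, 4° C overnight, 665/615 nm ratio.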

The target in the next test is T2, TLR8 (Homo sapiens, UniProt Q9NR97).
T2 construct: human HEK-Blue cells co-expressing a TLR7 or TLR8 gene
T2 sequence (Q9NR97 27-1041): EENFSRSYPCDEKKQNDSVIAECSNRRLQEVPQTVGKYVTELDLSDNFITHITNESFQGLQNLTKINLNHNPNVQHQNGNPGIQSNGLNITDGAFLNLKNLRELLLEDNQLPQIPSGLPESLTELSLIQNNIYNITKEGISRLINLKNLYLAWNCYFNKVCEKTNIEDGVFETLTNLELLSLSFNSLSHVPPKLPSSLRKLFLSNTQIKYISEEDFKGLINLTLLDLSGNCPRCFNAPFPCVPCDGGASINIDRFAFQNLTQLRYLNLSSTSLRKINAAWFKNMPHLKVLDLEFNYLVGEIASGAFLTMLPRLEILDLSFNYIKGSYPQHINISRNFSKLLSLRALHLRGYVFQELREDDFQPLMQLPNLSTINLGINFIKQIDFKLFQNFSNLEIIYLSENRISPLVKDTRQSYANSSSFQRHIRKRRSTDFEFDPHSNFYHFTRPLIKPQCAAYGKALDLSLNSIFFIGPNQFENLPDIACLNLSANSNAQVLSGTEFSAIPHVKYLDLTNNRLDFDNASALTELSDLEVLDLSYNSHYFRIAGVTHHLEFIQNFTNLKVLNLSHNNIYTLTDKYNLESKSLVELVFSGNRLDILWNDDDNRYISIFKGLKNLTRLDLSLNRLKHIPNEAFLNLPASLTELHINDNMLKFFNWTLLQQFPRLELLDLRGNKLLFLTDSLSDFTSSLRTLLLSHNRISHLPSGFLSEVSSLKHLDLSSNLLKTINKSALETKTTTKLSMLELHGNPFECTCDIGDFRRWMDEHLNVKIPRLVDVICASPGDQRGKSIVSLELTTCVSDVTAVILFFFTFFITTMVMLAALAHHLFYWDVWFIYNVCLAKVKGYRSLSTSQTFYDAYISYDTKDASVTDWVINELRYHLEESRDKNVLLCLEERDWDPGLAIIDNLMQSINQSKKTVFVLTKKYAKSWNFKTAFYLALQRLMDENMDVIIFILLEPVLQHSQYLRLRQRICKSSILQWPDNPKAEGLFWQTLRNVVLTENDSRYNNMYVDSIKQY
Nature of the test: In vitro human TLR8 binding reporter assay (HEK-Blue, NF-kB/AP1-inducible SEAP). Type of test: cell-based. The following applies: activity range, read-out: TLR8 Agonist EC50. An outline of the steps: as §1

As a reminder, the EC50 is the concentration needed to bring the measured effect to its halfway point. For `Nc1nc2cc(-c3cc[nH]n3)ccc2c2[nH]c(CN3CCCC3)cc12` [Example 476], the figures for the EC50 at TLR7, in the test on THP-1 cells and on TLR8 were above 100 µM, 0.51 µM and above 100 µM, respectively.
As for `Nc1nc2cc(-c3cc[nH]n3)ccc2c2[nH]c(CN3CC(F)(F)C3)cc12` [Example 477], the figures for the EC50 on TLR7, in the test with THP-1 cells and on TLR8 were above 100 µM, 0.27 µM and above 100 µM, respectively.
As to `Nc1nc2cc(-c3cc[nH]n3)ccc2c2[nH]c(CN[C@H]3CC[C@@H](CO)C3)cc12` [Example 478], the values for the EC50 at TLR7, in the test on THP-1 cells and on TLR8 were above 100 µM, 0.35 µM and above 100 µM, respectively.
For `COC1CN(Cc2cc3c(N)nc4cc(-c5cc[nH]n5)ccc4c3[nH]2)C1` [Example 479], the half-maximal effective concentration (EC50) on TLR7 was above 100 µM; in the test with THP-1 cells, 0.08 µM; at TLR8, above 100 µM.
For `Nc1nc2cc(-c3cc[nH]n3)ccc2c2[nH]c(CN3CC[C@@H](O)C3)cc12` [Example 480], the EC50 at TLR7 is above 100 µM; in the test on THP-1 cells, 0.26 µM; at TLR8, above 100 µM.
For the compound `CS(=O)(=O)NCCc1cc2c(N)nc3cc(-c4cc[nH]n4)ccc3c2[nH]1` [Example 481], the concentration for a half-maximal effect (EC50) is above 100 µM at TLR7, 0.38 µM in the test with THP-1 cells and above 100 µM on TLR8.
For `CCS(=O)(=O)NCCc1cc2c(N)nc3cc(-c4cc[nH]n4)ccc3c2[nH]1` [Example 482], the EC50 on TLR7 was above 100 µM; in the test on THP-1 cells it was 2.21 µM; at TLR8 it was above 100 µM.
Consider `CC(C)S(=O)(=O)NCCc1cc2c(N)nc3cc(-c4cc[nH]n4)ccc3c2[nH]1` [Example 483], for which the concentration giving a half-maximal response (EC50) was above 100 µM on TLR7, 1.1 µM in the test on THP-1 cells and above 100 µM at TLR8.
For `Nc1nc2cc(-c3cc[nH]n3)ccc2c2[nH]c(CCNS(=O)(=O)c3ccccc3)cc12` [Example 484], the half-maximal effective concentration (EC50) at TLR7 was above 100 µM; with THP-1 cells, 1.41 µM; at TLR8, above 100 µM.
Regarding `Nc1nc2cc(-c3cc[nH]n3)ccc2c2[nH]c(CCNC(=O)c3csc(Cl)n3)cc12` [Example 485], the results for the EC50 at TLR7, in the test with THP-1 cells and on TLR8 were above 100 µM, 0.08 µM and above 100 µM, respectively.
For `Nc1nc2cc(-c3cc[nH]n3)ccc2c2[nH]c(CN3CCOCC3)c(Cl)c12` [Example 486], the EC50 on TLR7 is above 100 µM; in the test with THP-1 cells it was 0.13 µM; at TLR8, above 100 µM.
`Nc1nc2cc(-c3cc[nH]n3)ccc2c2[nH]c(CN[C@H]3CCOC3)c(Cl)c12` [Example 487]: the EC50 at TLR7 is above 100 µM; in the test on THP-1 cells it was 0.37 µM; on TLR8, above 100 µM.
As for `CC(Cn1cc2c(N)nc3cc(-c4ccn[nH]4)ccc3c2n1)C(=O)N(C)C` (stereo not drawn) [Example 488, 3-(4-amino-7-(1H-pyrazol-5-yl)-2H-pyrazolo[4,3-c]quinolin-2-yl)-N,N,2-trimethylpropanamide.TFA], the EC50 is above 100 µM at TLR7, 1.15 µM with THP-1 cells and above 100 µM on TLR8.
`CO[C@H](CO)Cn1cc2c(N)nc3cc(-c4cc[nH]n4)ccc3c2n1` [Example 489]: the EC50 on TLR7 is above 100 µM; in the test with THP-1 cells, 0.77 µM; at TLR8, above 100 µM.
In the case of `Nc1nc2cc(-c3cc[nH]n3)ccc2c2[nH]c(CN3C[C@H]4COC[C@H]4C3)cc12` [Example 490], the concentration for a half-maximal effect (EC50) on TLR7 is above 100 µM; with THP-1 cells, 0.84 µM; at TLR8, above 100 µM.
Regarding `CN(Cc1cc2c(N)nc3cc(-c4cc[nH]n4)ccc3c2[nH]1)[C@H]1CCOC1` [Example 491], the 50% effective concentration (EC50) was above 100 µM at TLR7, 1.17 µM in the test on THP-1 cells and above 100 µM on TLR8.
Turning to `Nc1nc2cc(-c3cc[nH]n3)ccc2c2[nH]c(CN3CC4(CCOC4)C3)cc12` [Example 492], the EC50 is above 100 µM at TLR7, 0.76 µM in the test with THP-1 cells and above 100 µM on TLR8.
For the compound `Cc1nc(C(=O)NCCc2cc3c(N)nc4cc(-c5cc[nH]n5)ccc4c3[nH]2)co1` [Example 493], the concentration for a half-maximal effect (EC50) was above 100 µM on TLR7, 0.18 µM with THP-1 cells and above 100 µM at TLR8.
On to `Nc1nc2cc(-c3cc[nH]n3)ccc2c2[nH]c(CNCCO)cc12` [Example 494], for which the EC50 on TLR7 was above 100 µM; in the test with THP-1 cells it was 1.89 µM; on TLR8 it was above 100 µM.
For `Cc1nc(C(=O)NCCc2cc3c(N)nc4cc(-c5cc[nH]n5)ccc4c3[nH]2)cs1` [Example 495], the half-maximal effective concentration (EC50) at TLR7 was above 100 µM; in the test on THP-1 cells, 0.45 µM; at TLR8 it was above 100 µM.
Consider `Nc1nc2cc(-c3cc[nH]n3)ccc2c2[nH]c(CNCCF)cc12` [Example 496], for which the half-maximal effective concentration (EC50) at TLR7 is above 100 µM; in the test on THP-1 cells, 0.05 µM; at TLR8 it was above 100 µM.
On to `Nc1nc2cc(-c3cc[nH]n3)ccc2c2[nH]c(CNCC(F)(F)F)cc12` [Example 497], for which the half-maximal effective concentration (EC50) at TLR7 was above 100 µM; with THP-1 cells it was 0.05 µM; on TLR8, above 100 µM.
Turning to `COCCS(=O)(=O)NCCc1cc2c(N)nc3cc(-c4cc[nH]n4)ccc3c2[nH]1` [Example 498], the EC50 on TLR7 is above 100 µM; with THP-1 cells, 2.39 µM; on TLR8, above 100 µM.
Consider `CC(C)(C)c1cccc(C(=O)NCCc2cc3c(N)nc4cc(-c5cc[nH]n5)ccc4c3[nH]2)n1` [Example 499], for which the concentration giving a half-maximal response (EC50) on TLR7 is above 100 µM; in the test on THP-1 cells it was 1.34 µM; on TLR8, above 100 µM.
On to `Nc1nc2cc(-c3cc[nH]n3)ccc2c2[nH]c(CCNC(=O)c3cnco3)cc12` [Example 500], for which the concentration giving a half-maximal response (EC50) on TLR7 was above 100 µM; in the test on THP-1 cells it was 0.37 µM; on TLR8, above 100 µM.
On to `Nc1nc2cc(-c3cc[nH]n3)ccc2c2nn(CCC(=O)N3CCOCC3)cc12` [Example 501], for which the half-maximal effective concentration (EC50) at TLR7 was above 100 µM; with THP-1 cells, 0.73 µM; at TLR8, above 100 µM.
For the compound `NC(=O)CCCn1cc2c(N)nc3cc(-c4cc[nH]n4)ccc3c2n1` [Example 502], the concentration giving a half-maximal response (EC50) on TLR7 was above 100 µM; in the test with THP-1 cells it was 1.68 µM; at TLR8, above 100 µM.
For `Nc1nc2cc(-c3cc[nH]n3)ccc2c2nn(CCC(=O)N3CC(F)(F)C3)cc12` [Example 503], the figures for the 50% effective concentration (EC50) at TLR7, in the test with THP-1 cells and at TLR8 were above 100 µM, 2.58 µM and above 100 µM, respectively.
`Nc1nc2cc(-c3cc[nH]n3)ccc2c2nn(CCC(=O)NC3CCC3)cc12` [Example 504]: the results for the EC50 on TLR7, in the test with THP-1 cells and at TLR8 were above 100 µM, 2.34 µM and above 100 µM, respectively.
